A short description of data set [1]: Foam height, Ross-Miles method. The data set is classed as physicochemical. Particulars: 45° C., water with 120 ppm calcium hardness; for Foam Ht., 10 min Ht.: after 10 minutes.
Another data set has as its system zein. Set-up: species or system maize. The procedure:
Specifically, the lower the amount of zein protein dissolved, usually the milder a surfactant is. Conversely, the more zein dissolved, typically the more irritating the surfactant is. In order to test irritancy potential, a 1% solution of surfactant (30 mls) was added to 1.5 g zein and stirred at room temperature for 1 hr. Residual zein was collected and dried to constant weight. Differences between starting and residual weights were used to calculate % zein dissolved.

A short description of data set [2]: Critical micelle concentration by surface tension (Wilhemy plate method). The data set is classed as physicochemical. An excerpt:
The CMC is defined as the concentration of a surfactant at which it begins to form micelles in solution rather than precipitate. Specifically, materials that contain both a hydrophobic group and a hydrophilic group, (such as surfactants), will tend to distort the structure of the solvent (i.e, water) they are in and, therefore, increase the free energy of the system. They therefore, concentrate at the surface, whereby orienting so that their hydrophobic groups are directed away from the solvent, the free energy of the solution is minimized. Another means of minimizing the free energy can be achieved by the aggregation of these surface-active molecules into clusters or micelles with their hydrophobic groups directed toward the interior of the cluster and their hydrophilic groups directed toward the solvent.
The value of the CMC is determined by surface tension measurements using the Wilhemy plate method. While not wishing to be bound by theory, it is believed that a low CMC is a measure of surface activity (i.e, lower CMC of one surfactant versus another indicates the surfactant with lower CMC is more surface active). In this regard, it is believed that lower CMC signifies that lesser amounts of a surfactant are required to provide the same surfactancy benefits as a surfactant with higher CMC.

Data set [3] is described as follows: Krafft point of 1% dispersion of surfactant in water. As to conditions: for Krafft Pt.: 1% dispersion in water; for Krafft point (in words): compared with SLI. The class given is physicochemical. The procedure: The temperature at and above which surfactants begin to form micelles instead of precipitates is referred to as Krafft point (Tk) and at this temperature the solubility of an ionic surfactant becomes equal to its CMC.
Krafft point was measured by preparing a 1% dispersion of the surfactant in water. If the surfactant was soluble at room temperature, the solution was cooled to 0° C. […] If it precipitated out, the solution was slowly warmed with stirring in a water bath. The temperature at which the precipitate dissolved was determined to be the Krafft point.
If the Krafft point was above room temperature, the solution was first heated rapidly to dissolve all the surfactant. It was then cooled until precipitation occurred, and was then slowly warmed to determine the Krafft point described above.

The nature of data set [4]: Calcium ion sensitivity, modified Hart method. The class given is physicochemical. Particulars: for Ca + 2 Needed for Prec.: titration with calcium ion solution, visual cloudiness endpoint. The procedure:
The surfactant solution was titrated with a calcium ion solution. The endpoint was determined by visual observation of the cloudiness of the surfactant solution.

Data set [5] is described as follows: Hydrolytic stability at pH 9, 40° C. by reverse phase HPLC. The class given is physicochemical. Particulars: 5×10^-4 M in NaHCO3 buffer with 5% CH3CN, 500 µM.
[6] abbreviates: 1% solution of surfactant (30 mls), 1.5 g zein, room temperature, 1 hr.

Each structure is given as a SMILES string. Where two headings read alike, the source gives them in different places.

With `CCCCCCCCCCCCOCCOCCOCCOCCOC(=O)OCCS(=O)(=O)O` [SED(4EO)C, Sodium 2-sulfoethyl dodecyl (4EO) carbonate], in data set [1], the Foam Ht., 10 min Ht. was 152 mm and the Foam Ht., Initial Ht. is 158 mm. Further, in the data set with zein (setting [6]), the “% Zein Solub.” value was determined as 17%.
For `CCCCCCCCCCC(C)OC(=O)OCCS(=O)(=O)O` (stereo not shown) [SE2DC, Sodium 2-sulfoethyl 2-dodecylcarbonate], the CMC in data set [2] lay in the range of 3.7 to 4.0 mM. Besides, the “Krafft Pt.” value in data set [3] worked out at 0 °C. In addition, in data set [1], the Foam Ht., 10 min Ht. was 160 mm and the Foam Ht., Initial Ht. amounted to 162 mm. In the data set on zein (setting [6]), the “% Zein Solub.” value is on record as 47%. The “Ca + 2 Needed for Prec.” value in data set [4] is over 2700 ppm. The “Hydrolytic Stability, t 1/2” value in data set [5] is 223 h.
On to `CCCCCCCCCCCCOC(=O)OC(C)CS(=O)(=O)O` (stereo not shown) [SIDC, Sodium 2-sulfoisopropyl dodecyl carbonate], for which, in data set [2], the CMC is reported as 2.39 mM. In data set [3], the “Krafft Pt.” value was 15 °C. For the same compound, in data set [1], the Foam Ht., 10 min Ht. was determined as 161 mm and the Foam Ht., Initial Ht. amounted to 165 mm. Further, the “% Zein Solub.” value with zein (setting [6]) was determined as 51%. In addition, the “Ca + 2 Needed for Prec.” value in data set [4] is reported as 2000 ppm. Further, the “Hydrolytic Stability, t 1/2” value in data set [5] is 286 h.
`CCCCCCCCCCCCOC(=O)OC(CC)CS(=O)(=O)O` (stereo not shown) [S2DBC, Sodium 2-(1-sulfo)butyl dodecyl carbonate] yielded a CMC in data set [2] of 1.46 mM. Also, the “Krafft Pt.” value in data set [3] was determined as 0 °C. For the same compound, in data set [1], the Foam Ht., 10 min Ht. amounted to 142 mm and the Foam Ht., Initial Ht. was determined as 166 mm. The “% Zein Solub.” value with zein (setting [6]) was found to be 41%. Moreover, the “Ca + 2 Needed for Prec.” value in data set [4] is listed as 725 ppm. The “Hydrolytic Stability, t 1/2” value in data set [5] was determined as 1030 h.
As to `CCCCCCCCCCCC(=O)OCCS(=O)(=O)O` [SLI, sodium lauroyl isethionate, reference compound], in data set [2], the CMC worked out at 6.2 mM. For the same compound, the “Krafft Pt.” value in data set [3] came to 24 °C. Further, in data set [1], the “Foam Ht., 10 min Ht.” value is on record as “negligible” and the “Foam Ht., Initial Ht.” value is “negligible”. Besides, the “Ca + 2 Needed for Prec.” value in data set [4] turned out to be 51 ppm. The “Hydrolytic Stability, t 1/2” value in data set [5] was found to be 24 h.
On to `CCCCCCCCCCCCOCCOCCOC(=O)OCCS(=O)(=O)O` [SED(2EO)C, Sodium 2-sulfoethyl dodecyl (2EO) carbonate], for which, in data set [1], the Foam Ht., 10 min Ht. was 160 mm and the Foam Ht., Initial Ht. was 165 mm. Moreover, the “% Zein Solub.” value in the data set on zein (setting [6]) is recorded as 25%.
In data set [2], `CCCCCCCCCCC(C)OC(=O)OC(C)CS(=O)(=O)O` (stereo not shown) [SI2DC, Sodium 2-sulfoisopropyl 2-dodecyl carbonate] yielded a CMC of 2.6 to 2.8 mM. For the same compound, in data set [3], the “Krafft Pt.” value was determined as 30 °C and the “Krafft point (in words)” value is listed as “higher”. In data set [1], the Foam Ht., 10 min Ht. was found to be 149 mm and the Foam Ht., Initial Ht. is 156 mm. Besides, the “% Zein Solub.” value in the data set on zein (setting [6]) worked out at 49%. For the same compound, in data set [4], the “Ca + 2 Needed for Prec.” value worked out at 2500 ppm. In data set [5], the “Hydrolytic Stability, t 1/2” value was “≈ 70 Days”.
In data set [2], `CCCCCCCCCCCCOC(=O)OCCS(=O)(=O)O.[Na]` gave a CMC of 2.52 mM. Besides, in data set [3], the “Krafft Pt.” value was 24 °C and the “Krafft point (in words)” value was “same Krafft point as the SLI”. The Foam Ht., 10 min Ht. in data set [1] turned out to be 149 mm. For the same compound, in the data set on zein, the “% Zein Solub.” value amounted to 49%. In addition, in data set [4] (compared with non-carbonated isethionate (SLI)), the “Calcium sensitivity (in words)” value is reported as “greater calcium insensitivity than the ester SLI”. The “Ca + 2 Needed for Prec.” value in data set [4] came out at 150 ppm. Also, the “Hydrolytic Stability, t 1/2” value in data set [5] worked out at 55.2 h.

(Values after patent publication US5232633A, “Sulfoethyl carbonate wetting agents and their use in detergent compositions” (priority 1992, dated 1993).)
